Consider three molecules from US5147865A, “Phosphonopyrrolidine- and piperidine-containing pseudopeptides of the statin type, a process for their preparation and their use as medicaments against retroviruses” (Bayer Aktiengesellschaft, priority 1990, dated 1992).

A word on the IC50: it is the point on the concentration scale where inhibition reaches its midpoint.

For assay [1], the system named is HIV-infected normal human blood lymphocytes (PBLs). In words: HIV test in infected human blood lymphocytes (PBLs), syncytia formation, method of Pauwels et al. The assay is classed as cell-based. As to conditions: concentration at which 50% (about 10 syncytia) of the virus-induced syncytia were suppressed, day 3 to 6 after infection. The procedure: The HIV test was carried out with slight modifications by the method of Pauwels et al. (Journal of Virological Methods 20 (1988) 309-321).
Normal human blood lymphocytes (PBLs) were concentrated by means of Ficoll-Hypaque and stimulated with phytohaemagglutinin (90 μg/ml) and interleukin 2 (40 U/ml) in RPMI 1640 and 20% foetal calf serum. For infection with the infectious HIV, PBLs were pelleted and the cell pellet was then suspended in 1 ml of HIV virus adsorption solution and incubated at 37° C. for 1 hour.
The virus adsorption solution was centrifuged and the infected cell pellet was taken up in growth medium such that a concentration of 1×10^5 cells per ml was established. The cells infected in this way were pipetted into the wells of 96-well microtitre plates at a concentration of 1×10^4 cells/well. […]
The test batches were incubated at 37° C. until, in the untreated virus control, the syncytia formation typical for HIV occurred (between day 3 and 6 after infection), which was then evaluated microscopically.
The IC-50 values were determined as the concentration of the treated and infected cells at which 50% (about 10 syncytia) of the virus-induced syncytia were suppressed by treatment with the compound according to the invention.

The next assay has as its target T1, HIV protease (Human immunodeficiency virus type 1 group M subtype B, UniProt P04585).
T1 construct: purified HIV protease was incubated with synthetic peptide
The assay can be described thus: HIV-specific protease enzyme test (RP-HPLC analysis of synthetic peptide cleavage). The class given is biochemical. The conditions noted are these: purified HIV protease, synthetic peptide imitating a Gag precursor cleavage site; concentration causing 50% inhibition of protease activity. The procedure:
This is confirmed using an HIV-specific protease enzyme test.
The results for the examples listed below were determined by the HIV test system described in the following literature reports [cf. Hansen, J., Billich, S., Schulze, T., Sukrow, S. and Molling, K. (1988), EMBO Journal, Vol. 7, No. 6, pages 1785-1791]: purified HIV protease was incubated with synthetic peptide which imitated a cleavage site in the Gag precursor protein and represented an in vivo cleavage site of the HIV protease. The resulting cleavage products of the synthetic peptide were analysed by means of reverse phase high performance liquid chromatography (RP-HPLC). The IC50 values given relate to the substance concentration which causes a 50% inhibition of protease activity under the abovementioned test conditions.

With `CCOP(=O)(OCC)C1CCCN1C(=O)C[C@H](O)[C@H](CC1CCCCC1)NC(=O)[C@H](Cc1ccccc1)NC(=O)Nc1cccc2ccccc12` (single isomer, unassigned) [Example 16, Diethyl 1-{(3S,4S)-5-cyclohexyl-3-hydroxy-4-(1-napthylaminocarbonyl)phenylalaninyl]aminopentanoyl}-(2R or S)-2-(pyrrolidinyl)phosphonate], in assay [1], the 50% inhibitory concentration (IC50) was 4.3 µM. At HIV protease, `CCOP(=O)(OCC)C1CCCN1C(=O)C[C@H](O)[C@H](CC1CCCCC1)NC(=O)[C@@H](NC(=O)[C@H](Cc1cccc2ccccc12)CS(=O)(=O)C(C)(C)C)C(C)C` (stereo partly drawn) [Example 14, Diethyl 1-{(3S,4S)-4-[(2S)-3-(tert-butylsulphonyl)2-(1-naphthylmethyl)propanoyl]-valinylamino-5-cyclohexyl-3-hydroxypentanoyl}-(2RorS)-2-(pyrrolidinyl)phosphonate] registered an IC50 of 0.5 µM. In other words, the sub-micromolar range. Still for that read-out and setting: the value for `CCOP(=O)(OCC)C1CCCN1C(=O)C[C@@H](O)[C@H](CC1CCCCC1)NC(=O)OC(C)(C)C` (stereo partly drawn) [Example 28, Diethyl 1-{(3R,4S)-4-[(tert-butoxycarbonyl)amino]-5-cyclohexyl-3-hydroxypentanonyl]-(2R,S)-2-(pyrrolidinyl)phosphonate] was 10 µM.
